One series concerns the target T1, human TS (hTS) (Homo sapiens, UniProt P04818).
T1 construct: purchased ProSpec-Tany
Kind of series: Thymidylate synthase (TS) spectrophotometric assay. The note with it: averages from triplicate assays. It counts as biochemical. The method, then: Recombinant human thymidylate synthase purchased from ProSpec-Tany Company. TS was assayed spectrophotometrically at 30 °C and pH 7.4 in a mixture containing 0.1 M 2-mercaptoethanol, 0.0003 M (6R,S)-tetrahydrofolate, 0.012 M formaldehyde, 0.02 M MgCl2, 0.001 M dUMP, 0.04 M Tris–HCl, 30 nM hTS, and 0.00075 M NaEDTA. […] The reaction was initiated by the addition of an amount of enzyme yielding a change in absorbance at 340 nm of 0.016/min in the absence of inhibitor.

The target in a further series is BRaf kinase (Homo sapiens, UniProt P15056). Briefly: ADP-Glo kinase assay, BRaf. It counts as biochemical. The note with it: averages from triplicate assays. The method, then: (§1) The ADP-Glo™ kinase assay (Promega, Madison, WI) was used to screen target compounds for their inhibition effects for BRaf, EGFR kinase. The kinase assay was carried out in a 96-well plate, in a volume of 25 μL HEPES (pH 7.3) solvent containing 1.6 μg/mL EGF, and 20 ng of EGFR kinase, or 50 ng BRaf kinase, and 10 μM ATP (Promega, Madison, WI). […] Reactions in each well were started immediately by adding ATP and kept going for half an hour under 30 °C in a constant temperature incubator (Bluepard, Shanghai, China). After the plate cooled for 5 min at room temperature, 25 μl of ADP-Glo reagent was added into each well to stop the reaction and consume the remaining […] within 40 min. At the end, 50 μl of kinase detection reagent was added into the well and incubated for 1 h to produce a luminescence signal.
In general terms: ADP-Glo turns the ADP formed in a reaction into a luminescent signal.

The target in a further series is EGFR kinase (Homo sapiens, UniProt P00533). Briefly: ADP-Glo kinase assay, EGFR. The conditions noted are these: averages from triplicate assays. Format: biochemical. On the procedure: as §1
Series [1] relates to A549 cells. Kind of series: MTT assay A549. Format: cell-based, human. The conditions noted are these: Homo sapiens, A549, 24h of treatment, mean ± SD. On the procedure: (§2) Details are given in Supplementary Materials and Methods. Using probability unit and weighted regression method to calculate the IC50 value of compounds.
(§3) Total cells in the logarithmic growth phase were collected, digested using 0.25% pancreatic enzymes, and then diluted into single-cell suspensions using phosphate-buffered solution (PBS). These cells were seeded into 96-well plates at 4× 10^3-5× 10^3 cells per well (100 µL per well) and then A549, H460, OVCAR-3, SGC7901, MDA-MB-231, HCT116 and HepG2 were cultured at 37°Cin an incubator containing 5% CO2. After cell complete attachment, 100 µL of different concentrations of compounds (0.625 μM, 1.25 μM, 2.5μM, 5 μM, 10 μM) were added to the cells after the nutrient solution in each well was discarded, while no compound except 0.1% DMSO was added to cells in the control group; at the same time, each concentration was set up to 5 wells. In addition, 5 wells in each 96-well plate only received 100 µL of nutrient solution as a blank control. The plates were taken out after the cells were incubated with compounds for 24 h, and 20 µL of MTT solution (5 mg/mL) (Wuhan Boster Biotechnology Limited Company, Wuhan, China; item No. AR1156) was added into all the wells. After another time of incubation for 4 h at 37 °C, the nutrient solution in each well was discarded slowly, and 150 µL of DMSO was added to each well. The plates were shaken on a shaking table for 20 min. When the crystals were fully dissolved, the blank wells were used to zero the plate reader. The optical density (OD) of each well was detected at 490 nm. The IC50 value was determined as the concentration of the inhibitor that caused 50% inhibition. Using probability unit and weighted regression method to calculate the IC50 value of compounds.

The next series deals with OVCAR-3 cells. Briefly: MTT assay OVCAR-3. It counts as cell-based. The conditions noted are these: Homo sapiens, 24h of treatment, mean ± SD. The method, then: as §2, §3
(Tetrazolium dyes change colour on reduction, which living cells bring about.)

Another series concerns SGC7901 cells. Kind of series: MTT assay SGC7901. It counts as cell-based. The conditions noted are these: Homo sapiens, SGC-7901, 24h of treatment, mean ± SD. On the procedure: as §2, §3
For a further series, the system named is HCT-116 cells. Kind of series: MTT assay HCT-116. Format: cell-based. The note with it: Homo sapiens, 24h of treatment, mean ± SD. The method, then: as §2, §3
In a further series the test system is MDA-MB-231 cells. Briefly: MTT assay MDA-MB-231. It counts as cell-based. The conditions noted are these: Homo sapiens, 24h of treatment, mean ± SD. On the procedure: as §2, §3
The next series relates to HepG2 cells. Briefly: MTT assay HepG2. Format: cell-based. The note with it: Homo sapiens, 24h of treatment, mean ± SD. On the procedure:
as §2, §3

The subject of a further series is HPAEpiC cell line. Briefly: Selectivity index against HPAEpiC. It counts as cell-based. The note with it: SI = CC50/IC50.
The next series concerns IOSE80 cell line. Briefly: Selectivity index against IOSE80. It counts as cell-based. The conditions noted are these: SI = CC50/IC50.
Another series relates to GES-1 cell line. Kind of series: Selectivity index against GES-1. It counts as cell-based. The note with it: SI = CC50/IC50.
In another series the test system is HCoEpiC cell line. Briefly: Selectivity index against HCoEpiC. Format: cell-based. The note with it: SI = CC50/IC50.
A further series relates to HTB-125 cell line. Briefly: Selectivity index against HTB-125. Format: cell-based. The conditions noted are these: SI = CC50/IC50.
In another series the test system is LO2 cell line. Kind of series: Selectivity index against LO2. Format: cell-based. The conditions noted are these: SI = CC50/IC50.
The next series relates to SK-MES-1 cells. Briefly: MTT assay SK-MES-1. Format: cell-based.
In series [2] the test system is A549 cells. Kind of series: Transwell migration and wound healing, A549. It counts as cell-based, human. The conditions noted are these: at high doses. The method, then:
Cell migration ability was measured using transwell chambers (8-μm pore size; Corning Costar, Cambridge, MA, USA). For the transwell assay, A549 and H460 cells suspended in serum-free RPMI-1640 medium containing different concentrations of L14e (0, 0.5, 1.0, and 1.5 μM) were seeded into the upper chamber. The lower chamber contained RPMI-1640 medium supplemented with 20% serum. After 24 h incubation, the filters were fixed in methanol and stained with 0.1% crystal violet. The upper faces of the filters were gently abraded, and the lower faces with cells migrated across the filters were imaged and counted under the microscope. For wound healing assays, cells were placed into 6-well plates and cultured until 100% confluence. An artificial scratch was created using a 200 μL pipette tip. Add serum-free RPMI-1640 medium containing different concentrations of drugs. At 24 h after culturing in serum-free medium, wound closure images were captured in the same field under magnification. Cell healing rates were calculated by the fraction of cell coverage across the line. These experiments were performed in triplicate and repeated three times.

The next series has as its system FVB mice. Kind of series: Toxicity test in FVB mice. Format: in vivo. The note with it: mice, 3 weeks. The method, then: Blood was collected from euthanized mice under isoflurane-induced deep anesthesia by cardiac puncture. After allowing blood coagulation at 4 °C, serum was collected by centrifugation at 3000 rpm for 10 min at 4 °C. Analysis of the level of ALT, AST, Glu and CRE in the serum was performed using a veterinary hematology analyzer (Fuji DRI-Chem 3500 s, Fujifilm, Tokyo, Japan) according to the manufacturer’s provided protocols. The histopathological changes in liver, lung, brain, and kidney were evaluated by using HE-stained section of the tissues (This part of the results is in the supplementary document).
Tissues were fixed in 10% neutral-buffered formalin for 24 h, embedded in paraffin, cut into 4-μm-thick sections, deparaffinized with xylene and processed with a graded ethanol series. Next, the sections were stained with HE and were observed using Eclipse Ts2 microscope (Nikon).

What is called IC50 is the concentration that gives 50% inhibition.

T1 sequence (P04818 whole entry): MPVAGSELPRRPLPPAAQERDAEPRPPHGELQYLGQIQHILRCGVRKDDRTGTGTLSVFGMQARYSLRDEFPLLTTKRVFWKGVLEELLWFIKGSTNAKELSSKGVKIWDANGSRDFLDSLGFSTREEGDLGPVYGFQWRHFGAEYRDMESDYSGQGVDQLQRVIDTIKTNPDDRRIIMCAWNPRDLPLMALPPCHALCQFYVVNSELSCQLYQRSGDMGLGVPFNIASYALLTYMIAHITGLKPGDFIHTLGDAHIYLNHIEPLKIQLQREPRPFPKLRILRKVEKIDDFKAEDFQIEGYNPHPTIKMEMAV
Chain of EGFR kinase (P00533 25-1210): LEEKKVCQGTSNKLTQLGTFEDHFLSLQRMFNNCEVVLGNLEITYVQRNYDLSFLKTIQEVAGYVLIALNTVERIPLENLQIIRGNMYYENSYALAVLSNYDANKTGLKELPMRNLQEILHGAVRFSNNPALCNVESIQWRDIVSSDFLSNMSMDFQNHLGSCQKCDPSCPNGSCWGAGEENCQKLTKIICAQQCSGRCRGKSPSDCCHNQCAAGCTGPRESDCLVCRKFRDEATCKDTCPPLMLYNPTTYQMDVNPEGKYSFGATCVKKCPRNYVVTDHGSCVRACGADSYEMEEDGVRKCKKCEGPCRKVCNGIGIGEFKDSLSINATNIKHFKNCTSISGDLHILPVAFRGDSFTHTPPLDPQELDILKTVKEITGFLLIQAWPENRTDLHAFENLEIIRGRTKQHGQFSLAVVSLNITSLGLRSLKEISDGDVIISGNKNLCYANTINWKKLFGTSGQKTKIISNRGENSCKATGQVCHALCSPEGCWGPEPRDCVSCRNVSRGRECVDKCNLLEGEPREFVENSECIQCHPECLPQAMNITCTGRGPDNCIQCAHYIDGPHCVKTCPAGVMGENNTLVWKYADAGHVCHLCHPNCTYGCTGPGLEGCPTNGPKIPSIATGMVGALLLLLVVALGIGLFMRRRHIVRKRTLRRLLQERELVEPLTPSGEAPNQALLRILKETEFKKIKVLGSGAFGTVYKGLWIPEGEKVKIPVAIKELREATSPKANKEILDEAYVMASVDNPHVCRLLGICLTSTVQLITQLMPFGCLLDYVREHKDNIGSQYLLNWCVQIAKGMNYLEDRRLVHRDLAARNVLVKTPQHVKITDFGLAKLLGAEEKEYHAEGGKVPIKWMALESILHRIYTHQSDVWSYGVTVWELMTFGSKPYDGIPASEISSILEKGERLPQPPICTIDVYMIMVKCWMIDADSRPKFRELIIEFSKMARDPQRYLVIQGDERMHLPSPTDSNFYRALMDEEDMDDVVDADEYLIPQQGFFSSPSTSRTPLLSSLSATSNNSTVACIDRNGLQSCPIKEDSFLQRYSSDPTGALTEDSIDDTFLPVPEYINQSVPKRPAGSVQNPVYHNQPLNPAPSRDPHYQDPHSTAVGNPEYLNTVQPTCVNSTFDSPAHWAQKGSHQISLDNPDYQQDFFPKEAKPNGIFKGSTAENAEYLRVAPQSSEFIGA
Chain of BRaf kinase (P15056 whole entry): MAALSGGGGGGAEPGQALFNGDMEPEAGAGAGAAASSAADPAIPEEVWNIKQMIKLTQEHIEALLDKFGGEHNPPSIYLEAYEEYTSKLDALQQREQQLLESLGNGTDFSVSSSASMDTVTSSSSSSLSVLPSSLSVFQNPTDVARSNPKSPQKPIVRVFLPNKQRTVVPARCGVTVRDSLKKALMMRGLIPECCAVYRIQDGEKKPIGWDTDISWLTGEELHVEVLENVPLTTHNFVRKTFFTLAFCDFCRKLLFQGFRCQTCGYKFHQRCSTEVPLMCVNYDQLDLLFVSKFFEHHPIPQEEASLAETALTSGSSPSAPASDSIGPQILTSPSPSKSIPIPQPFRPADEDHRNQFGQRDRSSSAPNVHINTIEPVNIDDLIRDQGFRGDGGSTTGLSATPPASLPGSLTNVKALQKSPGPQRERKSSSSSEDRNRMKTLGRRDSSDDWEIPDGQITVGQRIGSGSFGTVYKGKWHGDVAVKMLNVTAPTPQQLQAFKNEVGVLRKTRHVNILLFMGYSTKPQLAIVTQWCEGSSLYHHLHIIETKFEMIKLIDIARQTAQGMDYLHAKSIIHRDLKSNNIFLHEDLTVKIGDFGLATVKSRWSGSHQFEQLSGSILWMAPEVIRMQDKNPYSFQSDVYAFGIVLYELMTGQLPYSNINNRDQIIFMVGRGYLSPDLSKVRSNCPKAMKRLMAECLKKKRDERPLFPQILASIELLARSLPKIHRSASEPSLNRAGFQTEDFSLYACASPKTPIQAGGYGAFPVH

On to `O=C(NNC(=O)c1ccccc1NS(=O)(=O)c1c[nH]c(=O)[nH]c1=O)c1cccc(Cl)c1` [Compound 10l, reference compound], for which the IC50 on human TS (hTS) is 1360 nM; at BRaf kinase, 1670 nM; at EGFR kinase, 2710 nM; in the series with A549 cells [1], 1260 ± 160 nM; in the series with OVCAR-3 cells it was 2080 ± 120 nM; in the series on SGC7901 cells, 1820 ± 80 nM. The figures for the IC50 with HCT-116 cells, in the series on MDA-MB-231 cells and with HepG2 cells were 2270 ± 230 nM, 2040 ± 370 nM and 7660 ± 770 nM, respectively. In the series with HPAEpiC cell line, the “SI (Selectivity index) HPAEpiC” value was 16.56. In addition, the “SI (Selectivity index) IOSE80” value in the series on IOSE80 cell line was 11.90. In the series on GES-1 cell line, the “SI (Selectivity index) GES-1” value amounted to 14.25. The “SI (Selectivity index) HCoEpiC” value in the series on HCoEpiC cell line was 4.09. For the same compound, in the series on HTB-125 cell line, the “SI (Selectivity index) HTB-125” value was found to be 5.26. In addition, the “SI (Selectivity index) LO2” value in the series with LO2 cell line is recorded as 12.57. For the same compound, the “inhibition of SK-MES-1 cells” value with SK-MES-1 cells is given as “did not inhibit”. Further, in the series on A549 cells [2], the “inhibition of A549 cells migration” value is “could inhibit A549 cells migration at high doses”.
In the case of `Nc1nc2[nH]cc(CCc3ccc(C(=O)N[C@@H](CCC(=O)O)C(=O)O)cc3)c2c(=O)[nH]1` [PTX, pemetrexed, reference compound], the IC50 was 3290 ± 150 nM in the series on A549 cells [1]; 7350 ± 600 nM with OVCAR-3 cells; 6960 ± 430 nM in the series on SGC7901 cells; 4640 ± 220 nM in the series on HCT-116 cells; 4180 ± 140 nM in the series with MDA-MB-231 cells. Further, the “inhibition of SK-MES-1 cells” value with SK-MES-1 cells is “did not inhibit”. Also, the “histopathological changes in liver, lung, brain, and kidney (HE staining)” value in the series on FVB mice is recorded as “no visible pathological changes”.

(Values after PMC6624297 (Cell Death & Disease, 2019).)
